# Results taken from patent US20250122456A1, “MICRO-PHY[…] FOR IMMUNE RESPONSE MODELING” (priority 2023, published 2025).
# Tested on: gut-liver interaction with immune cells
# Test: donor-matched gut-liver interaction with immune cells challenged with Poly:IC
# Type: cell-based, human
# Details: intestinal challenge, mimicking viral infection, FIG. 12
# From the text: A single-cell RNA sequencing characterization of 3 donor-matched blood, gut and liver tissue is shown at 1202. On top, T cell clustering per tissue is shown, including PBMCS (PB), liver (L), and gut lamina propria (LP) and intraepithelial space (IEL). On the bottom, a distribution of major T cell subtypes per tissue is shown including CD4 T cells, CD8 T cells, and gamma-delta T cells. […] The interacting system was challenged with Poly:IC mimicking viral infection. […] On the bottom, liver albumin production data compare the three conditions.
substance,measurement,value
Poly: IC,inflammatory cytokines detected in common media,significant induction
